Results on one molecule are retold here after US20050214412A1, “APPARATUS AND METHOD FOR DELIVERING NUTRITIONAL SUPPLEMENTS WITH BEVERAGE SWEETENERS” (priority 2004, published 2005).

This series is described as follows: Proton NMR stability check in deuterium oxide after heating and after sunlight exposure. It is filed as physicochemical. To be noted: with table sugar, Equal, Sweet'N Low and Splenda. Here is the method:
All ^1H NMR spectra were obtained on a Varian Mercury 300 NMR spectrometer operating at ambient temperature. Solutions were prepared in deuterium oxide solvent (isotopically labeled water). Samples were prepared by dissolving a measured amount of solid in sufficient solvent to produce a total volume of approximately 1 mL. Initial samples were prepared just before spectra were obtained in order to minimize possible premature hydrolysis or attack by microbes in the case of sugar solutions. Samples were later re-examined after heating at 70.0 to 92.0° C. (158 to 198° F.) for 98 minutes and then again after being stored outside on the roof exposed to Central Florida sunlight and heat for 47.3 hours.

Each structure is given as a SMILES string.

Turning to `O=C1O[C@H]([C@@H](O)CO)C(O)=C1O` [Vit. C, ascorbic acid], the “chemical compatibility with sweeteners” value is listed as “chemically compatible”.
